How the values were obtained:
[1] = test system: galium; test: Test C postemergence; format: in vivo, Galium aparine; details: Postemergence, 1000 g ai/ha
From the text: (§1) Seeds of plant species selected from barnyardgrass (Echinochloa crusgalli), blackgrass (Alopecurus myosuroides), corn (Zea mays), foxtail, giant (giant foxtail, Setaria faberi), green foxtail (Setaria viridis), goosegrass (Eleusine indica), kochia (Bassia scoparia), oat, wild (wild oat, Avena fatua), pigweed, palmer (palmer amaranth, palmer pigweed, Amaranthus palmeri), Pigweed, Redroot (redroot pigweed, Amaranthus retroflexus), ragweed (common ragweed, Ambrosia artemisiifolia), ryegrass, Italian ([…] ryegrass, Lolium multiflorum), soybean (Glycine max), and wheat (Triticum aestivum) were planted into a blend of loam soil and sand and treated preemergence with a directed soil spray using test chemicals formulated in a non-phytotoxic solvent mixture which included a surfactant. At the same time, plants selected from these crops and weed species and also galium (catchweed bedstraw, Galium aparine) and horseweed (Erigeron canadensis) were planted in pots containing the same blend of loam soil and sand and treated with postemergence applications of test chemicals formulated in the same manner. Plants ranged in height from 2 to 10 cm and were in the one- to two-leaf stage for the postemergence treatment. Treated plants and untreated controls were maintained in a greenhouse for 10 days, after which time all treated plants were compared to untreated controls and visually evaluated for injury. Plant response ratings, summarized in Table C, are based on a 0 to 100 scale where 0 is no effect and 100 is complete control. A dash (-) response means no test result.

[2] = test system: green foxtail; test: Test C postemergence; format: in vivo, Setaria viridis; details: Postemergence, 1000 g ai/ha
From the text: as §1

[3] = test system: ryegrass, Italian; test: Test C postemergence; format: in vivo, Lolium multiflorum; details: Postemergence, 1000 g ai/ha
From the text: as §1

[4] = test system: barnyardgrass; test: Test C preemergence; format: in vivo, Echinochloa crusgalli; details: Preemergence, 1000 g ai/ha; visual rating after 10 days, 0 to 100 scale (0 no effect, 100 complete control)
From the text: as §1

[5] = test system: kochia; test: Test C postemergence; format: in vivo, Bassia scoparia; details: Postemergence, 1000 g ai/ha
From the text: as §1

[6] = test system: kochia; test: Test C preemergence; format: in vivo, Bassia scoparia; details: Preemergence, 1000 g ai/ha; visual rating after 10 days, 0 to 100 scale (0 no effect, 100 complete control)
From the text: as §1

[7] = test system: horseweed; test: Test C postemergence; format: in vivo, Erigeron canadensis; details: Postemergence, 1000 g ai/ha
From the text: as §1

[8] = test system: pigweed, palmer; test: Test C postemergence; format: in vivo, Amaranthus palmeri; details: Postemergence, 1000 g ai/ha
From the text: as §1

[9] = test system: ragweed; test: Test C postemergence; format: in vivo, Ambrosia artemisiifolia; details: Postemergence, 1000 g ai/ha
From the text: as §1

[10] = test system: blackgrass; test: Test C preemergence; format: in vivo, Alopecurus myosuroides; details: Preemergence, 1000 g ai/ha; visual rating after 10 days, 0 to 100 scale (0 no effect, 100 complete control)
From the text: as §1

[11] = test system: pigweed, palmer; test: Test C preemergence; format: in vivo, Amaranthus palmeri; details: Preemergence, 1000 g ai/ha; visual rating after 10 days, 0 to 100 scale (0 no effect, 100 complete control)
From the text: as §1

[12] = test system: ragweed; test: Test C preemergence; format: in vivo, Ambrosia artemisiifolia; details: Preemergence, 1000 g ai/ha; visual rating after 10 days, 0 to 100 scale (0 no effect, 100 complete control)
From the text: as §1

[13] = test system: ryegrass, Italian; test: Test C preemergence; format: in vivo, Lolium multiflorum; details: Preemergence, 1000 g ai/ha; visual rating after 10 days, 0 to 100 scale (0 no effect, 100 complete control)
From the text: as §1

[14] = test system: green foxtail; test: Test C preemergence; format: in vivo, Setaria viridis; details: Preemergence, 1000 g ai/ha; visual rating after 10 days, 0 to 100 scale (0 no effect, 100 complete control)
From the text: as §1

[15] = test system: barnyardgrass; test: Test C postemergence; format: in vivo, Echinochloa crusgalli; details: Postemergence, 1000 g ai/ha
From the text: as §1

[16] = test system: blackgrass; test: Test C postemergence; format: in vivo, Alopecurus myosuroides; details: Postemergence, 1000 g ai/ha
From the text: as §1

[17] = test system: corn; test: Test C postemergence; format: in vivo, Zea mays; details: Postemergence, 1000 g ai/ha, 10 days, visual 0 to 100 scale (0 no effect, 100 complete control)
From the text: as §1

[18] = test system: corn; test: Test C preemergence; format: in vivo, Zea mays; details: Preemergence, 1000 g ai/ha; visual rating after 10 days, 0 to 100 scale (0 no effect, 100 complete control)
From the text: as §1

[19] = 10 days, visual 0 to 100 scale (0 no effect, 100 complete control)
[20] = 0 to 100 scale, 0 no effect, 100 complete control

| SMILES | Plant response rating, Galium [1, 19] | Plant response rating, Foxtail, Green [2, 19] | Plant response rating, Ryegrass, Italian [3, 19] | Plant response rating, Barnyardgrass [4] | Plant response rating, Kochia [5, 19] | Plant response rating, Kochia [6] | Plant response rating, Horseweed [7, 19] | Plant response rating, Pigweed, Palmer [8, 19] | Plant response rating, Ragweed [9, 19] | Plant response rating, Blackgrass [10] | Plant response rating, Pigweed, Palmer [11] | Plant response rating, Ragweed [12] | Plant response rating, Ryegrass, Italian [13] | Plant response rating, Foxtail, Green [14] | Plant response rating, Barnyardgrass [15, 20] | Plant response rating, Blackgrass [16, 19] | Plant response rating, Barnyardgrass [15, 19] | further results |
| --- | --- | --- | --- | --- | --- | --- | --- | --- | --- | --- | --- | --- | --- | --- | --- | --- | --- | --- |
| Cc1cc(-c2cccc(C(=O)N3C[C@H](C)Oc4c(C)cccc43)c2)cnn1 [Compound 209] | 40 | 0 | 0 | 0 | 0 | 0 | 20 | 0 | 0 | 0 | 0 | 0 | 30 | 0 | 0 | 0 |  |  |
| Cc1ccn(-c2cccc(C(=O)N3C[C@H](C)Oc4c(Cl)cccc43)c2)n1 [Compound 206] | 40 | 0 | 40 | 30 | 20 | 10 | 0 | 50 | 0 | 0 | 30 | 0 | 80 | 20 | 0 | 0 |  |  |
| C[C@H]1CN(C(=O)c2cccc(-c3cnnn3C)c2)c2cccc(Cl)c2O1 [Compound 239] | 70 | 30 | 0 | 50 | 40 | 30 | 30 | 70 | 50 | 30 | 80 | 0 | 70 | 100 | 30 | 10 |  | Plant response rating, Corn [17]: 0; Plant response rating, Corn [18]: 0 |
| Cc1cccc2c1O[C@@H](C)CN2C(=O)c1cccc(-n2cnc(Cl)c2)c1 [Compound 304] | 70 | 20 | 0 | 60 | 40 | 10 | 0 | 20 | 0 | 70 | 70 | 0 | 90 | 100 |  | 30 | 10 |  |
| C[C@H]1CN(C(=O)c2cccc(-c3cn(C)cn3)c2)c2cccc(Cl)c2O1 [Compound 293] | 0 | 0 | 0 | 0 | 0 | 0 | 30 | 10 | 0 | 0 | 10 | 0 | 0 | 0 |  | 0 | 0 |  |
| Cc1cnc(-c2cccc(C(=O)N3C[C@H](C)Oc4c(C)cccc43)c2)s1 [Compound 243] | 60 | 0 | 50 | 60 | 10 | 0 | 40 | 60 | 0 | 0 | 0 | 30 | 70 | 70 | 10 | 0 |  |  |
| Cc1cccc2c1O[C@@H](C)CN2C(=O)c1cccc(-n2cncc2Br)c1 [Compound 297] | 0 | 0 | 0 | 0 | 30 | 0 | 20 | 0 | 0 | 0 | 0 | 0 | 0 | 0 |  | 0 | 0 |  |
| C[C@H]1CN(C(=O)c2cccc(N3CCOCC3)c2)c2cccc(Cl)c2O1 [Compound 166] |  |  |  | 0 |  | 0 |  |  |  | 0 | 0 | 0 | 0 | 0 | 0 |  |  | Plant response rating, Galium [1, 20]: 20; Plant response rating, Foxtail, Green [2, 20]: 0; Plant response rating, Ryegrass, Italian [3, 20]: 0; Plant response rating, Kochia [5, 20]: 0; Plant response rating, Horseweed [7, 20]: 0; Plant response rating, Pigweed, Palmer [8, 20]: 10; Plant response rating, Ragweed [9, 20]: 0; Plant response rating, Blackgrass [16, 20]: 0 |
| Cc1cc(-c2cccc(C(=O)N3C[C@H](C)Oc4c(Cl)cccc43)c2)sn1 [Compound 389] | 90 | 70 | 0 | 70 | 80 | 90 | 0 | 90 | 30 | 30 | 70 | 20 | 60 | 100 |  | 10 | 70 |  |

From US20260262643A1, “HERBICIDAL BENZOXAZINES” (FMC CORPORATION, priority 2022, published 2026)
